Measured values from ChEMBL document CHEMBL3621038, “Structure-Affinity Relationship Analysis of Selective FKBP51 Ligands” (J Med Chem, 2015).

Legend:
[1] = target: T1, Peptidyl-prolyl cis-trans isomerase FKBP4 (Homo sapiens, UniProt Q02790); experiment: Binding affinity to FKBP52 (unknown origin) by competitive fluorescence polarization assay
T1 sequence (Q02790 whole entry): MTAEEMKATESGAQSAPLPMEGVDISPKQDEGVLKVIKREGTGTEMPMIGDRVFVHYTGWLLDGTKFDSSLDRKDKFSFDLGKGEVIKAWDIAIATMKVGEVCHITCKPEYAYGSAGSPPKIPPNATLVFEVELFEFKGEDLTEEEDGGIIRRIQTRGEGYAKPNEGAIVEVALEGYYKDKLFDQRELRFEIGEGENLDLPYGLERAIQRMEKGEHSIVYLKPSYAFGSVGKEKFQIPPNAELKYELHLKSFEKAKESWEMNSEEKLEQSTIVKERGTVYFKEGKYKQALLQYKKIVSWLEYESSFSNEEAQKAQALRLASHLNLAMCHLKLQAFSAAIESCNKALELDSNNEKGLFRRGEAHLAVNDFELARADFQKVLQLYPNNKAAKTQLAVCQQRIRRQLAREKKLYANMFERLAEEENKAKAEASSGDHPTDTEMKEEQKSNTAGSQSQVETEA

[2] = target: Peptidyl-prolyl cis-trans isomerase FKBP1A (Homo sapiens, UniProt P62942); experiment: Binding affinity to FKBP12 (unknown origin) by competitive fluorescence polarization assay
Chain of Peptidyl-prolyl cis-trans isomerase FKBP1A (P62942 whole entry): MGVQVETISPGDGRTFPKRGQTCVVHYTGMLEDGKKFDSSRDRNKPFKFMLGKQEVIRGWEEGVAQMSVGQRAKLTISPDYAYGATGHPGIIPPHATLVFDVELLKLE

[3] = target: T2, Peptidyl-prolyl cis-trans isomerase FKBP5 (Homo sapiens, UniProt Q13451)
T2 sequence (Q13451 whole entry): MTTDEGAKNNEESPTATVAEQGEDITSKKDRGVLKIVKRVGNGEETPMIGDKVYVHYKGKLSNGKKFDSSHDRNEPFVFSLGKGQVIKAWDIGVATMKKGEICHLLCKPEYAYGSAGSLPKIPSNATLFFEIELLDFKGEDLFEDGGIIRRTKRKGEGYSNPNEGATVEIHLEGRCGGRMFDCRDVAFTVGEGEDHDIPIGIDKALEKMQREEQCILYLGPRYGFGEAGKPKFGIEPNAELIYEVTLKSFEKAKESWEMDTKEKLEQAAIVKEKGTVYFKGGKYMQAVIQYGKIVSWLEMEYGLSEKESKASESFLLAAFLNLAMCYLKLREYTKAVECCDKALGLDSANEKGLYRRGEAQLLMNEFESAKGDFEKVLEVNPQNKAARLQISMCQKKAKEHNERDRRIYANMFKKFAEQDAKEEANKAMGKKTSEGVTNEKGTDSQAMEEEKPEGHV

| Compound | Ki [1] | Ki [2] | Ki [3] |
| --- | --- | --- | --- |
| COc1cc(OC)cc([C@@H](C(=O)N2CCCC[C@H]2C(=O)O[C@H](CCc2ccc(OC)c(OC)c2)c2cccc(OCC(=O)O)c2)C2CCCCC2)c1 | > 50 µM | 600 nM | 110 nM |
| COc1cccc([C@@H](C(=O)N2CCCC[C@H]2C(=O)O[C@H](CCc2ccc(OC)c(OC)c2)c2cccc(OCC(=O)O)c2)C2CCCCC2)c1 | > 100 µM | 1200 nM | 160 nM |
| COc1ccc(CC[C@@H](OC(=O)[C@@H]2CCCCN2C(=O)CC2CCCCC2)c2cccc(OCC(=O)O)c2)cc1OC | 9.7 µM | 300 nM | – |
| COc1ccc(CC[C@@H](OC(=O)[C@@H]2CCCCN2C(=O)[C@H](c2cc(OC)c(OC)c(OC)c2)C2CCCCC2)c2cccc(OCC(=O)O)c2)cc1OC | > 50 µM | 90 nM | 4 nM |
